Data reported in article PMC9260081, “Design, Synthesis, and Evaluation of Anticonvulsant Activities of New Triazolopyrimidine Derivatives” (Frontiers in Chemistry, 2022).
Like-named read-outs stand apart in the source and are kept apart here.

Columns and labels:
PTZ-induced seizures = assay: Subcutaneous pentylenetetrazole (PTZ) test; type: in vivo, mice; conditions: ip; for minimal effective dose: dosages 30, 100, 300 mg/kg, read-out: PTZ screening, minimum dose whereby bioactivity was demonstrated in half or more of the mice
Method: (§1) Male Kunming mice with weights from 18 to 22 g were used in all the pharmacological experiments. The mice were housed in the standard cages with 10 each, where a controlled temperature (25°C ± 2°C) with a 12 h light/dark cycle was maintained. All animals had free access to food and water. All experiments and procedures involving animals were carried out according to the Guide for the Care and Use of Laboratory Animals (National Academies Press, Washington, D.C., United States). Approval from the local medical ethical committee was obtained before the experiment.
In the PTZ test, mice were subcutaneously administered with PTZ at the dose of 85 mg/kg. At this dose, mice can be elicited a threshold seizure characterized by an episode of clonic spasms and tonic spasms. After being treated with test compounds at doses of 300, 100, and 30 mg/kg, the mice were considered protected if a single episode of clonic spasms of more than 5 s duration was not obtained. The quantitative anticonvulsant activity (ED50) in the PTZ model was determined and calculated with the same method described in the MES test.

[1] = test system: ability to maintain equilibrium on rotating rod; assay: Neurotoxicity screening (rotarod test); type: in vivo; conditions: i.p.; for NT screening (rotarod), minimum neurotoxic dose in half or more of the mice: dosages 30, 100, 300 mg/kg
Method: as §1
The rotarod test was used to evaluate the neurotoxicity of the synthesized compounds. Before the formal experiments, mice were trained to climb on a rotating rod of diameter 3.2 cm with the rotation speed of 10 rpm. Test compounds in the three doses were intraperitoneally injected into the trained mice. […] The rough neurotoxic dose was obtained in which mice cannot maintain equilibrium on the rod for at least 1 min. The quantitative neurotoxic dose (TD50) of the test compounds was measured and calculated with the same method described in the MES test.

MES-induced seizures = assay: Maximal electroshock seizure (MES) test; type: in vivo, mice; conditions: for minimal effective dose: dosages 30, 100, 300 mg/kg, read-out: MES screening, minimum dose whereby bioactivity was demonstrated in half or more of the mice
Method: as §1
In the MES test, mice were subjected to ear stimulation using a 0.2 s 60-Hz 50-mA alternating current to elicit seizures. Tonic hind limb extension was considered as the seizure occurring, and the vanishing of tonic hind limb extension indicates the protection against the MES-induced seizures. Mice were injected intraperitoneally with test compounds at doses of 300, 100, and 30 mg/kg to evaluate their general anticonvulsant activity. Half and 4 h intervals were chosen to test the anti-MES activity. […] A series of doses of the tested compounds were injected into the mice with 10 in one group.

[2] = Mus musculus, mice, 0.5 h after injection
[3] = Mus musculus, mice, 4 h after injection
[4] = Mus musculus, ip, mice, 0.5 h after injection
[5] = Mus musculus, ip, mice, 4 h after injection

Row | Compound | minimal effective dose (PTZ-induced seizures; [2]) [mg/kg] | minimal effective dose (PTZ-induced seizures; [3]) [mg/kg] | NT screening (rotarod), minimum neurotoxic dose in half or more of the mice ([1]; 0.5 h after injection) | NT screening (rotarod), minimum neurotoxic dose in half or more of the mice ([1]; 4 h after injection) | minimal effective dose (MES-induced seizures; [4]) [mg/kg] | minimal effective dose (MES-induced seizures; [5]) [mg/kg] | ED50 (PTZ-induced seizures; Mus musculus, mice, 95% confidence interval in brackets, read-out: ED50 scPTZ) [mg/kg] | PI scPTZ, protective index (TD50/ED50) (PTZ-induced seizures; male, Kunming, mouse, in vivo) | TD50 ([1]; rotarod, mice, 95% confidence interval in brackets) | ED50 (MES-induced seizures; Mus musculus, ip, mice, 95% confidence interval in brackets, read-out: ED50 MES) [mg/kg] | PI MES, protective index (TD50/ED50) (MES-induced seizures; TD50 rotarod / ED50 MES, mice i.p.)
1 | O=[N+]([O-])c1ccc(-c2ccnc3ccnn23)cc1 [Compound 4g, 7-(4-Nitrophenyl)pyrazolo[1,5-a]pyrimidine] | > 300 | > 300 | — (A dash indicates the absence of anticonvulsant activity and neurotoxicity at the maximum dose administered (300 mg/kg)) | — (A dash indicates the absence of anticonvulsant activity and neurotoxicity at the maximum dose administered (300 mg/kg)) | > 300 | > 300 |  |  |  |  | 
2 | Clc1ccccc1-c1ccnc2ccnn12 [Compound 4c, 7-(2-Chlorophenyl)pyrazolo[1,5-a]pyrimidine] | > 300 | > 300 | — (A dash indicates the absence of anticonvulsant activity and neurotoxicity at the maximum dose administered (300 mg/kg)) | — (A dash indicates the absence of anticonvulsant activity and neurotoxicity at the maximum dose administered (300 mg/kg)) | > 300 | > 300 |  |  |  |  | 
3 | COc1ccc(-c2ccnc3ncnn23)cc1 [Compound 3i, 7-(4-Methoxyphenyl)-[1,2,4]triazolo[1,5-a]pyrimidine] | 100 | > 300 | — (A dash indicates the absence of anticonvulsant activity and neurotoxicity at the maximum dose administered (300 mg/kg)) | — (A dash indicates the absence of anticonvulsant activity and neurotoxicity at the maximum dose administered (300 mg/kg)) | 300 | > 300 |  |  |  |  | 
4 | c1ccc(-c2ccnc3ccnn23)cc1 [Compound 4a, 7-Phenylpyrazolo[1,5-a]pyrimidine] | > 300 | > 300 | — (A dash indicates the absence of anticonvulsant activity and neurotoxicity at the maximum dose administered (300 mg/kg)) | — (A dash indicates the absence of anticonvulsant activity and neurotoxicity at the maximum dose administered (300 mg/kg)) | > 300 | > 300 |  |  |  |  | 
5 | CCCC(CCC)C(=O)O [Valproate, reference compound] |  |  |  |  |  |  | 149 | 2.8 | 418 (369–450) mg/kg | 264 | 1.6
6 | CCCCOc1ccc(-c2ccnc3ncnn23)cc1 [Compound 6b, 7-(4-Butoxyphenyl)-[1,2,4]triazolo[1,5-a]pyrimidine] | 300 | > 300 | — (A dash indicates the absence of anticonvulsant activity and neurotoxicity at the maximum dose administered (300 mg/kg)) | — (A dash indicates the absence of anticonvulsant activity and neurotoxicity at the maximum dose administered (300 mg/kg)) | 100 | > 300 |  |  |  |  | 
7 | Clc1ccc(-c2ccnc3ccnn23)c(Cl)c1 [Compound 4e, 7-(2,4-Dichlorophenyl)pyrazolo[1,5-a]pyrimidine] | 300 | > 300 | — (A dash indicates the absence of anticonvulsant activity and neurotoxicity at the maximum dose administered (300 mg/kg)) | — (A dash indicates the absence of anticonvulsant activity and neurotoxicity at the maximum dose administered (300 mg/kg)) | > 300 | > 300 |  |  |  |  | 
